Results from ChEMBL document CHEMBL4393714, “Multi-targeting protein-protein interaction inhibitors: Evolution of macrocyclic ligands with embedded carbohydrates (MECs) to improve selectivity” (Eur J Med Chem, 2019).

Key:
[1] = biological target: Small conductance calcium-activated potassium channel (Rattus norvegicus) (UniProt P70604+P70606+P70605); assay: Displacement of [125I]apamin from rat brain SKCa at 10 uM measured after 60 mins by scintillation counter method relative to control
[2] = biological target: 5-hydroxytryptamine receptor 6 (Homo sapiens) (UniProt P50406); assay: Displacement of [3H]LSD from human recombinant 5-HT6 receptor at 10 uM measured after 120 mins by scintillation counter method relative to control
Chain of 5-hydroxytryptamine receptor 6 (Homo sapiens) (P50406 whole entry): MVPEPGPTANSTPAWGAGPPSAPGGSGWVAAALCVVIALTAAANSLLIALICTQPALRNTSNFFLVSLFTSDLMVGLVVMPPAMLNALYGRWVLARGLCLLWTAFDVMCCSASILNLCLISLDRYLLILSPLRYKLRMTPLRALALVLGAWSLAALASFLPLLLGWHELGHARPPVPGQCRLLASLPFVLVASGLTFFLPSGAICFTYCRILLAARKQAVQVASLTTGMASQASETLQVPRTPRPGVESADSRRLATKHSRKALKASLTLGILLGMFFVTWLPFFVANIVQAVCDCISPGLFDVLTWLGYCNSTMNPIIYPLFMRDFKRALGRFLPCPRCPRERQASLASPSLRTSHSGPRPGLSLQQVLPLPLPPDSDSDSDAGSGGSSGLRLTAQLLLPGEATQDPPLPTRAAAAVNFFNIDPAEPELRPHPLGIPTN

[3] = biological target: 5-hydroxytryptamine receptor 2A (Homo sapiens, UniProt P28223); assay: Displacement of [3H] ketanserin from human recombinant 5-HT2A receptor at 10 uM measured after 60 mins by scintillation counter method relative to control
Chain of 5-hydroxytryptamine receptor 2A (P28223 whole entry): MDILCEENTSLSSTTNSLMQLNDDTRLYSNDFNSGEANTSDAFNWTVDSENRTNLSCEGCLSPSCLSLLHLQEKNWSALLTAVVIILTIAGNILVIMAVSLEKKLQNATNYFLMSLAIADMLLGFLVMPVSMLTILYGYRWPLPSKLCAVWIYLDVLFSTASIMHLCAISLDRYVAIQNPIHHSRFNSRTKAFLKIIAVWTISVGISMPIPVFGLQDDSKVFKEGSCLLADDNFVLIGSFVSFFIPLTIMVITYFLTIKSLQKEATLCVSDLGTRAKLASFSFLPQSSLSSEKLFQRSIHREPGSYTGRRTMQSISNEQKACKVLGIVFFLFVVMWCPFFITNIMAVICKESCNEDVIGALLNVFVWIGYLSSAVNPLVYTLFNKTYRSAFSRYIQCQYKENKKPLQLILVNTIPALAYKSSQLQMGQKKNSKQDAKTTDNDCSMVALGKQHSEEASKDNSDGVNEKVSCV

[4] = biological target: 5-hydroxytryptamine receptor 1B (Homo sapiens) (UniProt P28222); assay: Displacement of [3H] GR125743 from human recombinant 5-HT1B receptor at 10 uM measured after 60 mins by scintillation counter method relative to control
Chain of 5-hydroxytryptamine receptor 1B (Homo sapiens) (P28222 whole entry): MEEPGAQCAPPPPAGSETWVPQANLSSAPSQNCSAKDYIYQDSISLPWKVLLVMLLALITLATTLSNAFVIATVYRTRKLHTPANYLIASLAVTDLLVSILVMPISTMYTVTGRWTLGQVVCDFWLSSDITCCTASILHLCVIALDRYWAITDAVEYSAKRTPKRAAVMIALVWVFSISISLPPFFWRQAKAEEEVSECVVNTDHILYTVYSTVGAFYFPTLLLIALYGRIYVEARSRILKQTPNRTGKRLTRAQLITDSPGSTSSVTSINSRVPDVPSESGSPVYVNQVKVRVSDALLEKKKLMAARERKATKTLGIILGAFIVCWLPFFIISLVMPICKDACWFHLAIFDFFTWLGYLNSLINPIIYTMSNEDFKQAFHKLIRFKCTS

[5] = biological target: Prostaglandin E2 receptor EP4 subtype (Homo sapiens) (UniProt P35408); assay: Displacement of [3H]PGE2 from human recombinant EP4 receptor at 10 uM measured after 120 mins by scintillation counter method relative to control
Chain of Prostaglandin E2 receptor EP4 subtype (Homo sapiens) (P35408 whole entry): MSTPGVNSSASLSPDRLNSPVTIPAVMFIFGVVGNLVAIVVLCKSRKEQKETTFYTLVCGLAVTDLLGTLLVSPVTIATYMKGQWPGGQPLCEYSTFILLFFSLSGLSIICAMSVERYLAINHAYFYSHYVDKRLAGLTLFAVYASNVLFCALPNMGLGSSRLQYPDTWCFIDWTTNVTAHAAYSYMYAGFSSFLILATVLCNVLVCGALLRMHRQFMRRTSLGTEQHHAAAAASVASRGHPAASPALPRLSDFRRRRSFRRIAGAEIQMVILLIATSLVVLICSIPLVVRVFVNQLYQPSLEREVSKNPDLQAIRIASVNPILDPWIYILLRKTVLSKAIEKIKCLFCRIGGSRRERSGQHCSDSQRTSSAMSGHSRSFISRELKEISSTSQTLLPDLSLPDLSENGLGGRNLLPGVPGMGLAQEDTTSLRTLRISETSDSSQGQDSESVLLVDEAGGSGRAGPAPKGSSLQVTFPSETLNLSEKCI

[6] = biological target: C-X-C chemokine receptor type 2 (Homo sapiens) (UniProt P25025); assay: Displacement of [125I]IL-8 from human recombinant CXCR2 receptor at 10 uM measured after 60 mins by scintillation counter method relative to control
Chain of C-X-C chemokine receptor type 2 (Homo sapiens) (P25025 whole entry): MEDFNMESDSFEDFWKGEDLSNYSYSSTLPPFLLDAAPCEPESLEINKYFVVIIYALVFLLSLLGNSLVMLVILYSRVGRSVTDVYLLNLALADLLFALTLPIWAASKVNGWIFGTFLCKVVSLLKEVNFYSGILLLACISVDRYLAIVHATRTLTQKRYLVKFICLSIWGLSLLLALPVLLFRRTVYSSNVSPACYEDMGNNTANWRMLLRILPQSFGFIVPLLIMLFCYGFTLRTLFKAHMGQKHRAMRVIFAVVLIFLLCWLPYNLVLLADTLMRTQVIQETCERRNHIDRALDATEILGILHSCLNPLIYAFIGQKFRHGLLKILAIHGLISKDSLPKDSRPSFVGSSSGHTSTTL

[7] = biological target: D(2) dopamine receptor (Homo sapiens) (UniProt P14416); assay: Displacement of [3H]methyl-spiperone from human recombinant D2S receptor at 10 uM measured after 60 mins by scintillation counter method relative to control
Chain of D(2) dopamine receptor (Homo sapiens) (P14416 whole entry): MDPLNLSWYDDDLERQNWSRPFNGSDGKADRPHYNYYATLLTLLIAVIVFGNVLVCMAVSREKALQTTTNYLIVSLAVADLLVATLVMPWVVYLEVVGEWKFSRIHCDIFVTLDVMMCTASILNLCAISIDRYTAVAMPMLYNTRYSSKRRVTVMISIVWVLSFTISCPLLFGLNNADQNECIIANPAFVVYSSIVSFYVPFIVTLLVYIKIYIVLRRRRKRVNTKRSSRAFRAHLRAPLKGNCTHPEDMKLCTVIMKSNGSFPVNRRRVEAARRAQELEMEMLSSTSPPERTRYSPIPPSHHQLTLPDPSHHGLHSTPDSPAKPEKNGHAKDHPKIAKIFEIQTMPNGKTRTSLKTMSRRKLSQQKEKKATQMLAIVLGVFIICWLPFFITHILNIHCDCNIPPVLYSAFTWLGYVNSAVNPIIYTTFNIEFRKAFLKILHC

[8] = biological target: Beta-1 adrenergic receptor (Homo sapiens) (UniProt P08588); assay: Displacement of [3H] (-)CGP 12177 from human recombinant beta1 adreno receptor at 10 uM measured after 60 mins by scintillation counter method relative to control
Chain of Beta-1 adrenergic receptor (Homo sapiens) (P08588 whole entry, looked up): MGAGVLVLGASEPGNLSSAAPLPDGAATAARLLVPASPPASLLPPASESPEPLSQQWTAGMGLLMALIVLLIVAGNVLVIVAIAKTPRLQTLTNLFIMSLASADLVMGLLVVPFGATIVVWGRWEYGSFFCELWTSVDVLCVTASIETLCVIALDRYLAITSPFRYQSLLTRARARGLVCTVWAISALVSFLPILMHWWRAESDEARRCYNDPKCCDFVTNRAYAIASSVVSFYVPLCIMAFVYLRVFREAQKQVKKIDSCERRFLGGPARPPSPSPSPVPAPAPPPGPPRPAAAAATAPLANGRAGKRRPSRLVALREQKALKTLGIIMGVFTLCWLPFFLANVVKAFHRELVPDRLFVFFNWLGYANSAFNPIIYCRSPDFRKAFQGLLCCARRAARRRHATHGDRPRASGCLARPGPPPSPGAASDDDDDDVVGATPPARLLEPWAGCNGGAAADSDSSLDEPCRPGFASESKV

Rattus norvegicus = species on record: Rattus norvegicus; assay: Displacement of [3H]flunitrazepam from rat GABAA Central-type benzodiazepine receptor at 10 uM measured after 120 mins by scintillation counter method relative to control

CC(C)CCO[C@@H]1[C@H]2OC(C)(C)O[C@H]2[C@H]2Cn3cc(nn3)COCCCCCCN(CCc3ccc4ccccc4c3)CC[C@H]1O2
inhibition [1]: 1.4% | inhibition [2]: 16.1% | inhibition [3]: 93.2% | inhibition [4]: 19% | inhibition [5]: 29.9% | inhibition [6]: 20.9% | inhibition [7]: 59.6% | inhibition [8]: 10.6% | Activity (Rattus norvegicus): 3.7%
